{
  "source": "paper PMC4699860",
  "about": "(Biophysical Journal, 2015)",
  "molecular_target": "K-Ras4B1-166-GDP (Homo sapiens, UniProt P01116)",
  "assay": "Microscale thermophoresis",
  "type": "binding",
  "conditions": "MST; nucleotide state not given; pH 7.0, 0.05% TWEEN-20",
  "data": [
    {"substance": "Ac-KEKLNSKPGKKKKKKSKTK-NH2 [kR-4B-28]", "values": [
      {"measurement": "interaction with K-Ras4B1-166 (in words)", "value": "abolished the interaction"}
    ]}
  ]
}
